Where two headings read alike, the source gives them in different places. Where no end group is shown, it is not given here.
Columns and labels:
HIP rats = details: cited from earlier work
AKO mice = details: cited from earlier work; for amylin deposits in the myocardium: i.v. q.d., 7 days
amylin = molecular target: T1, amylin (Homo sapiens, UniProt P10997); assay: Amylin aggregation with 14,15-EET (FIG. 15A); assay type: biochemical
T1 construct: is a 37-amino acid peptide synthesized and co-secreted with insulin
T1 sequence (P10997 34-70 limits assumed): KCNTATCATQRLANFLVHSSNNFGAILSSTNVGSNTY

cardiac myocytes = assay: Amylin incorporation in cardiac myocytes ex vivo (FIG. 15B); assay type: cell-based
Method: Cardiac myocytes were isolated from rats in all rat groups. Isolated myocytes are used for testing myocyte accumulation of amylin (by ELISA and Western blot, as shown before^8,10), sarcolemmal structural integrity (dye leakage assay, electron microscopy, LC-MS/MS and fluorescent markers) and myocyte Ca^2+ cycling (see below). Each experiment is performed on hearts/myocytes from a number of rats/group. Calculation of the minimum sample size with a two-tail t-test considering α=0.05 and 1−β=0.8; performed with GPower 3.1.9.2.

[1] = test system: RBCs / cultured vascular endothelial cells; assay: RBC adhesion assay on cultured vascular endothelial cells; assay type: cell-based, rat
Method: RBCs collected from each HIP rat group (normal, pre-diabetes, diabetes, ±high-fat diet) are infused into AKO rats (300 μL RBCs, daily, 7 days, q.d., via the tail vein). Because diabetes develops later (by 6 mo) in female vs. male HIP rats, AKO rats are matched for age and sex to HIP rats providing the RBCs for infusion. At the end of infusion period, rats are sacrificed, perfused with saline through a catheter implanted into the right external jugular vein to wash out the blood from blood vessels, followed by heart collection and paraffin embedding. Confocal microscopy is used to identify the attachment of amylin-loaded RBCs to vascular endothelium (as in FIG. 5A). Before analysis, heart sections are incubated with 1% Sudan black to block autofluorescence. Control sections with either omitted primary or secondary antibodies are used to establish specific staining. […] Adherence is calculated as percentage of optical density of adhered Hb (as in FIG. 5C).
In some embodiments, adult rat microvascular endothelial cells (RA-6024, Cell Biologics, IL) were cultured on 96-wells cell culture plate coated with cell attachment factor solution (123-100, Sigma, MO). […] The amount of hemoglobin in each well was measured from the optical density (OD) as described above. Adherence was calculated as the percentage of OD of adhered hemoglobin/(OD of total hemoglobin×dilution factor).

WT rat RBCs = assay: RBC shape by flow cytometry after incubation with human amylin; assay type: cell-based
Method: In all rat groups (±high-fat diet), the RBC shape distributions are analyzed by FACScan flow cytometry (Becton Dickinson LSRII) as a function of characteristic RBC amylin levels, as in FIG. 4D. The Pearson coefficient of dissymmetry (PCD) shown in FIG. 4D reflects the sphericity of RBCs (PCD=0 indicates RBC spherical shape).
In some embodiments, RBCs (1×10^7 cells) were aliquoted to assay tubes, washed twice with 2 mL incubation buffer (0.5% BSA in PBS), and resuspended in 100 μL incubation buffer. RBCs were incubated with an anti-amylin antibody (1:200, T-4157, Bachem-Peninsula Laboratories, CA) for 1 hour on ice, washed twice with PBS by centrifugation at 1000×g for 1 minute and then incubated with goat anti-rabbit Alexa Fluor® 488 (A11029, Invitrogen, MA) for 30 min on ice. RBCs were then washed twice before re-suspension in 200 μl PBS, and analyzed by flow cytometer (Becton Dickinson LSRII) within 90 min. To assess the cell shape, RBCs were first gated on a forward scatter (FSC)/side scatter (SSC) plot. The R1 events arevisualized using a FSC-A/FSC-H dot plot. For detecting amylin deposited on RBCs, the cells were first gated on a forward scatter (FSC)/side scatter (SSC) plot. RBCs were further gated to determine the amylin signal (Alexa 488), using negative control (no antibody) and positive control to set the upper and lower boundaries.

diabetic UCD rats = assay: Intravenous aggregated human amylin in diabetic UCD rats; assay type: in vivo, rat
Method: To examine further a possible ‘amylin stress” on oxygen-sensing pathways, aggregated human amylin (hA) (0.08 μg/g body weight) was intravenously administered to diabetic UCD rats, daily, for one week. […] This acute “amylin stress” provoked an increase in plasma EPO level (FIG. 23E; the “after hA inj” rat group) and no difference in renal HIF-2α and HIF-1α levels in whole kidney tissue homogenate (FIG. 23F).

[2] = kidney tissue homogenates, FIG. 23G

CC(=O)N1CCC(NC(=O)NC23CC4CC(CC(C4)C2)C3)CC1 [APAU]
amylin incorporation into RBCs and cardiac myocytes (HIP rats; pre-diabetic HIP rats): lower
heart function (HIP rats; pre-diabetic HIP rats, prior study): improved
levels of aggregated amylin in blood and cardiac myocytes (HIP rats; pre-diabetic male HIP rats, 10 weeks, prior study): lower levels

rodent amylin: non-amyloidogenic (i.e., monomeric) rodent amylin (KCNTATCATQRLANFLVRSSNNLGPVLPPTNVGSNTY; ends and bridges not checked; cysteine pairing not given here; UniProt P12969 38-74, looked up)
amylin deposits in the myocardium (AKO mice): not
Sarcolemmal Ca2+ leak and Ca2+ transients (AKO mice; rat amylin-infused mice): no significant changes

CCCCCC1OC1C/C=C\C/C=C\C/C=C\CCCC(=O)O (racemic) [14,15-EET, (±)14(15)-EET]
amylin aggregation (amylin): reduced
amylin incorporation in cardiac myocytes (cardiac myocytes): reduced
adhesion of HIP rat RBCs to cultured endothelial cells ([1]; ex vivo incubation, FIG. 22D): reduced

human amylin: 37-amino acid amyloid-forming peptide (islet amyloid polypeptide; IAPP), used recombinant/synthetic, aggregated (KCNTATCATQRLANFLVHSSNNFGAILSSTNVGSNTY)
RBC adherence to cultured endothelial cells ([1]; WT rat RBCs incubated 50 μmol/L, 2 h, FIG. 5C): increased
structural change of RBCs (rounded shape) (WT rat RBCs; 50 μmol/L, 2 h): replicated
morphological change of RBCs (PCD) (WT rat RBCs; 4 hours, FIG. 27): replicated
amylin deposition on RBCs (diabetic UCD rats; 0.08 μg/g body weight i.v. daily, one week, FIG. 23D): amylin deposition on RBCs
plasma EPO level (diabetic UCD rats; 0.08 μg/g i.v. daily, one week, vs baseline, FIG. 23E): increase
Arginase 1 protein levels (diabetic UCD rats; [2]): elevated
arginase 2 protein expression (diabetic UCD rats; [2]): no significant change
renal HIF-2α and HIF-1α levels (diabetic UCD rats; whole kidney tissue homogenate, FIG. 23F): no difference
Sarcolemmal Ca2+ leak and Ca2+ transients (AKO mice; females): no significant changes
amylin deposits in the myocardium (AKO mice): showed amylin deposits in the myocardium
Sarcolemmal Ca2+ leak and Ca2+ transients (AKO mice; myocytes from male AKO mice): increased

From patent publication US12115141B2, “Diagnosis of diabetes by detecting aggregated amylin in erythrocytes” (University of Kentucky Research Foundation, priority 2018, dated 2024)
